The structures appear in SMILES notation. Values joined by “and” are separate entries in the source; they are usually repeats but may differ in a detail not shown here. Equal entries are not always repeated.

Consider 28 compounds from patent US20130123215A1, “2,5-DIOXOIMIDAZOLIDIN-1-YL-3-PHENYLUREA DERIVATIVES AS FORMYL PEPTIDE RECEPTOR LIKE-1 (FPRL-1) RECEPTOR MODULATORS” (ALLERGAN, INC., priority 2011, published 2013).

The target of the first assay is T1, FPRL-1 (Homo sapiens, UniProt P25090).
T1 construct: expressed in transfected cells; host or cells: CHO-Gα16 cells stably expressing FPRL1
T1 sequence (P25090 1-351): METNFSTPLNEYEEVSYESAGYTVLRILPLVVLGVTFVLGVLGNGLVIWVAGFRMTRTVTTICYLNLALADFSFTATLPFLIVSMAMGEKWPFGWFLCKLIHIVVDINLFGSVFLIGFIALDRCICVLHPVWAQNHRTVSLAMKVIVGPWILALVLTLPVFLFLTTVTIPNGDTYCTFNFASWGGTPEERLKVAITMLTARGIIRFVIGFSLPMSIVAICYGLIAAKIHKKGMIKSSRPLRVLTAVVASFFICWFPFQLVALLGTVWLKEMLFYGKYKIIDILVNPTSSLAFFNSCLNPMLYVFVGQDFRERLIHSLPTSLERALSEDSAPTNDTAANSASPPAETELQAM
Put plainly: FPRL-1 Ga16-CHO compound-induced calcium activity (FLIPR Tetra). The class given is cell-based. The note with it: CHO-Gα16 cells stably expressing FPRL1; calcium activity on FLIPR Tetra; tested at 0.61 to 10,000 nM; read-out: FPRL-1 Ga16-CHO EC50. As to the method: HEK-Gα16 and CHO-Gα16 cells stably expressing FPRL1 were cultured in (F12, 10% FBS, 1% PSA, 400 μg/ml geneticin and 50 μg/ml hygromycin) and HEK-Gqi5 cells stable expressing FPR1 were cultured in (DMEM high glucose, 10% FBS, 1% PSA, 400 μg/ml geneticin and 50 μg/ml hygromycin). In general, the day before the experiment, 18,000 cells/well were plated in a 384-well clear bottom poly-d-lysine coated plate. The following day the screening compound-induced calcium activity was assayed on the FLIPR^Tetra. The drug plates were prepared in 384-well microplates using the EP3 and the MultiPROBE robotic liquid handling systems. Compounds were tested at concentrations ranging from 0.61 to 10,000 nM. Results are expressed as EC50 (nM) and efficacy values.
Consider `CC1(CCc2ccc(F)cc2)NC(=O)N(NC(=O)Nc2ccc(Br)cc2)C1=O` (stereo not shown) [Compound 39, 1-(4-Bromophenyl)-3-(4-(4-fluorophenethyl)-4-methyl-2,5-dioxoimidazolidin-1-yl)urea], for which the EC50 was found to be 17 nM.
Take `CC1(CCc2ccc(F)cc2)NC(=O)N(NC(=O)Nc2ccc(Br)cc2F)C1=O` (stereo not shown) [Compound 40, 1-(4-Bromo-2-fluorophenyl)-3-(4-(4-fluorophenethyl)-4-methyl-2,5-dioxoimidazolidin-1-yl)urea]: the EC50 was 118 nM.
Take `CC1(CCc2cccc(F)c2)NC(=O)N(NC(=O)Nc2ccc(Br)cc2)C1=O` (stereo not shown) [Compound 41, 1-(4-Bromophenyl)-3-(4-(3-fluorophenethyl)-4-methyl-2,5-dioxoimidazolidin-1-yl)urea]: the EC50 is 11.1 nM.
Take `CC1(CCc2ccc(O)cc2)NC(=O)N(NC(=O)Nc2ccc(Br)cc2)C1=O` (stereo not shown) [Compound 42, 1-(4-Bromophenyl)-3-(4-(4-hydroxyphenethyl)-4-methyl-2,5-dioxoimidazolidin-1-yl)urea]: the EC50 worked out at 13.3 nM.
For `CC1(CCc2cccs2)NC(=O)N(NC(=O)Nc2ccc(Br)cc2)C1=O` (stereo not shown) [Compound 43], the EC50 turned out to be 7.9 nM.
`CC1(CCc2cccs2)NC(=O)N(NC(=O)Nc2ccc(Br)cc2F)C1=O` (stereo not shown) [Compound 44]: the EC50 was determined as 86 nM.
On the same count and under the same terms, in the case of `CC1(CCc2ccc(O)cc2)NC(=O)N(NC(=O)Nc2ccc(Br)cc2F)C1=O` (stereo not shown) [Compound 45, 1-(4-Bromo-2-fluorophenyl)-3-(4-(4-hydroxyphenethyl)-4-methyl-2,5-dioxoimidazolidin-1-yl)urea] it was 8.7 nM; in that of `Cc1ccc(CCC2(C)NC(=O)N(NC(=O)Nc3ccc(Br)cc3)C2=O)o1` (stereo not shown) [Compound 46, 1-(4-Bromophenyl)-3-(4-methyl-4-(2-(5-methylfuran-2-yl)ethyl)2,5-dioxoimidazolidin-1-yl)urea], 3.5 nM; in that of `CC1(CCc2ccc(O)c(F)c2)NC(=O)N(NC(=O)Nc2ccc(Br)cc2)C1=O` (stereo not shown) [Compound 47, 1-(4-Bromophenyl)-3-(4-(3-fluoro-4-hydroxyphenethyl)-4-methyl-2,5-dioxoimidazolidin-1-yl)urea], 7.9 nM.
`CC1(CCc2ccc(O)c(F)c2)NC(=O)N(NC(=O)Nc2ccc(Br)cc2F)C1=O` (stereo not shown) [Compound 48, 1-(4-Bromo-2-fluorophenyl)-3-{4-[2-(3-fluoro-4-hydroxyphenyl)ethyl]-4-methyl-2,5-dioxoimidazolidin-1-yl}urea]: the EC50 was 7.4 nM.
Take `COc1ccc(COCCC2(C(C)C)NC(=O)N(NC(=O)Nc3ccc(Br)cc3)C2=O)cc1` (stereo not shown) [Compound 49, 1-(4-Bromophenyl)-3-(4-isopropyl-4-(2-((4-methoxybenzyl)oxy)ethyl)-2,5-dioxoimidazolidin-1-yl)urea]: the EC50 was 232 nM.
On the same count and under the same terms, in the case of `CC1(CCc2ccccc2O)NC(=O)N(NC(=O)Nc2ccc(Br)cc2)C1=O` (stereo not shown) [Compound 50, 1-(4-Bromophenyl)-3-(4-(2-hydroxyphenethyl)-4-methyl-2,5-dioxoimidazolidin-1-yl)urea] it was 0.97 nM; in that of `CC1(CCc2ccccc2O)NC(=O)N(NC(=O)Nc2ccc(Br)cc2F)C1=O` (stereo not shown) [Compound 51, 1-(4-Bromo-2-fluorophenyl)-3-(4-(2-hydroxyphenethyl)-4-methyl-2,5-dioxoimidazolidin-1-yl)urea], 5.8 nM.
The same measure, in the same setting: in the case of `CC1(CCc2cccc(O)c2)NC(=O)N(NC(=O)Nc2ccc(Br)cc2)C1=O` (stereo not shown) [Compound 52, 1-(4-Bromophenyl)-3-(4-(3-hydroxyphenethyl)-4-methyl-2,5-dioxoimidazolidin-1-yl)urea] it was 1.5 nM and 2.07 nM; in that of `CC1(CCc2cccc(O)c2)NC(=O)N(NC(=O)Nc2ccc(Br)cc2F)C1=O` (stereo not shown) [Compound 53, 1-(4-Bromo-2-fluorophenyl)-3-(4-(3-hydroxyphenethyl)-4-methyl-2,5-dioxoimidazolidin-1-yl)urea], 2.9 nM.
Consider `CC1(CCc2ccncc2)NC(=O)N(NC(=O)Nc2ccc(Br)cc2)C1=O` (stereo not shown) [Compound 54, 1-(4-Bromophenyl)-3-(4-methyl-2,5-dioxo-4-(2-(pyridin-4-yl)ethyl)imidazolidin-1-yl)urea], for which the EC50 was found to be 30.2 nM.
As for `CC1(CCc2ccncc2)NC(=O)N(NC(=O)Nc2ccc(Br)cc2F)C1=O` (stereo not shown) [Compound 55], the EC50 was found to be 28.6 nM.
For the compound `COC(=O)c1ccc(CCC2(C)NC(=O)N(NC(=O)Nc3ccc(Br)cc3)C2=O)cc1` (stereo not shown) [Compound 58, Methyl 4-(2-(1-(3-(4-Bromophenyl)ureido)-4-methyl-2,5-dioxoimidazolidin-4-yl)ethyl)benzoate], the EC50 was 204 nM.
On to `COC(=O)c1ccccc1CCC1(C)NC(=O)N(NC(=O)Nc2ccc(Br)cc2)C1=O` (stereo not shown) [Compound 59, Methyl 2-(2-(1-(3-(4-bromophenyl)ureido)-4-methyl-2,5-dioxoimidazolidin-4-yl)ethyl)benzoate], for which the EC50 stood at 28.9 nM.
`CCC1(CCc2ccccc2C(=O)OC)NC(=O)N(NC(=O)Nc2ccc(Br)cc2F)C1=O` (stereo not shown) [Compound 61, Methyl 2-(2-(1-(3-(4-bromo-2-fluorophenyl)ureido)-4-ethyl-2,5-dioxoimidazolidin-4-yl)ethyl)benzoate]: the EC50 amounted to 14.9 nM.
As for `CC1(Cc2c[nH]c3ccccc23)NC(=O)N(NC(=O)Nc2ccc(Br)cc2)C1=O` (stereo not shown) [Compound 64, 1-(4-Bromophenyl)-3-[4-(1H-indol-3-ylmethyl)-4-methyl-2,5-dioxoimidazolidin-1-yl]urea], the EC50 was 114 nM.
Same read-out and setting: in the case of `CCc1ccc2[nH]c(C3(C)NC(=O)N(NC(=O)Nc4ccc(Br)cc4F)C3=O)cc2c1` (stereo not shown) [Compound 65, 1-(4-Bromo-2-fluorophenyl)-3-[4-(5-ethyl-1H-indol-2-yl)-4-methyl-2,5-dioxoimidazolidin-1-yl]urea] it was 169 nM.
Still for that read-out and setting: in the case of `O=C(Nc1ccc(Br)cc1)NN1C(=O)NC(C2CC2)(C2CC2)C1=O` [Compound 66, 1-(4-Bromophenyl)-3-(4,4-dicyclopropyl-2,5-dioxoimidazolidin-1-yl)urea] it was 14.3 nM; in that of `CC(C)C1(C(C)C)NC(=O)N(NC(=O)Nc2ccc(Br)cc2)C1=O` [Compound 67, 1-(4-Bromophenyl)-3-[2,5-dioxo-4,4-di(propan-2-yl)imidazolidin-1-yl]urea], less than 2 nM; in that of `CC(C)C1(CO)NC(=O)N(NC(=O)Nc2ccc(Br)cc2)C1=O` (stereo not shown) [Compound 74, 1-(4-Bromophenyl)-3-(4-(hydroxymethyl)-4-isopropyl-2,5-dioxoimidazolidin-1-yl)urea], 2.65 nM.
In the case of `CC(C)C1(CCO)NC(=O)N(NC(=O)Nc2ccc(Br)cc2)C1=O` (stereo not shown) [Compound 75, 1-(4-Bromophenyl)-3-(4-(2-hydroxyethyl)-4-isopropyl-2,5-dioxoimidazolidin-1-yl)urea], the EC50 turned out to be 21.2 nM.
Take `CC(C)C1(CO)NC(=O)N(NC(=O)Nc2ccc(Br)cc2F)C1=O` (stereo not shown) [Compound 76, 1-(4-Bromo-2-fluorophenyl)-3-(4-(2-hydroxymethyl)-4-isopropyl-2,5-dioxoimidazolidin-1-yl)urea]: the EC50 was determined as 50 nM.

The same assay, now with this note: FPRL-1 Ga16-CHO EC50, CHO-Gα16 cells stably expressing FPRL1; calcium activity on FLIPR Tetra; tested at 0.61 to 10,000 nM.
For `CCC1(CCc2ccccc2C(=O)OC)NC(=O)N(NC(=O)Nc2ccc(Br)cc2)C1=O` (stereo not shown) [Compound 60, Methyl 2-(2-(1-(3-(4-bromophenyl)ureido)-4-ethyl-2,5-dioxoimidazolidin-4-yl)ethyl)benzoate], the EC50 was found to be 10.3 nM.

By EC50 is commonly meant the midpoint of the concentration-response curve.
